Broadly, the Ki is a measure of affinity in units of concentration, obtained from inhibition or displacement.

The target in this experiment is T1, h5-HT5A receptor (Homo sapiens, UniProt P47898).
T1 construct: expressed in transfected cells; membranes used
T1 sequence (P47898 whole entry): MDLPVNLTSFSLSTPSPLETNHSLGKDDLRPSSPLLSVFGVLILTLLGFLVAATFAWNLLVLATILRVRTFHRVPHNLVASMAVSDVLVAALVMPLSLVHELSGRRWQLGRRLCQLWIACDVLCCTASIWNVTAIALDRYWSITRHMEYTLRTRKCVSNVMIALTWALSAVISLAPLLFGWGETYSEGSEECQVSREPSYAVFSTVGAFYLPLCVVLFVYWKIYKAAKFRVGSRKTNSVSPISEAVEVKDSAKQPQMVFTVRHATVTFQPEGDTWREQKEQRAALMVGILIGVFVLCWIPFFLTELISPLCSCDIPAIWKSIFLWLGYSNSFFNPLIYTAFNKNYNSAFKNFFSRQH
Kind of experiment: h5-HT5A [3H]5-CT binding assay. The note with it: affinity for 5-HT5A; membranes of HEK293 cells expressing the h5-HT5A receptor gene, 2.5 nM [3H]5-CT. As to the method:
h5-HT5A [^3H]5-CT Binding Assay
Membranes of HEK293 cells which permanently express the h5-HT5A receptor gene were incubated in 100 mM tris-HCl buffer (pH 7.7) containing 1 mM EDTA, in the presence of 2.5 nM [^3H]5-CT (total volume 600 μL). The total binding is defined as the binding that is observed when the membranes are incubated in the presence of only the radioligand. The inhibition induced by the compound is determined by incubation of cell membranes in the presence of the radioligand and various concentrations of the compound of interest. Nonspecific binding is defined as the [^3H]5-CT binding obtained by incubation of the membranes, the same as for the total binding, but in the presence of 10 μM methiothepine. Following incubation for 75 min at 30° C., the membrane suspension was filtered through a GF/B-Filter coated with 0.03% PEI, using a Skatron® harvesting system. The residual radioactivity in the filter was quantified by liquid scintillation counting.
Various concentrations of the test substances were used in both assays, and the Ki or IC50 values were determined.
`COc1cccc(Cl)c1CNC(=N)Nc1ccc(C)cn1` [Example 18, N-(2-Chloro-6-methoxybenzyl)-N′-(5-methylpyridin-2-yl)guanidine acetate]: the Ki is under 100 nM.
The result for `COc1cccc(OC)c1CNC(=N)Nc1cc(C#N)ccn1` [Example 64, N-(4-Cyanopyridin-2-yl)-N′-(2,6-dimethoxybenzyl)guanidine acetate] reads under 100 nM.
Consider `COc1ccccc1CNC(=N)Nc1ncc(C(F)(F)F)cc1Cl` [Example 10, N-[3-Chloro-5-(trifluoromethyl)pyridin-2-yl]-N′-(2-methoxybenzyl)guanidine acetate], for which the Ki was under 10000 nM.
The result for `COc1cccc(OC)c1CNC(=N)Nc1ncc(C(F)(F)F)cc1Cl` [Example 11, N-[3-Chloro-5-(trifluoromethyl)pyridin-2-yl]-N′-(2,6-dimethoxybenzyl)guanidine acetate] reads under 10000 nM.
The result for `N=C(NCc1ccccc1OC(F)(F)F)Nc1cccc(Br)n1` [Example 73, N-(6-Bromopyridin-2-yl)-N′-[2-(trifluoromethoxy)benzyl]guanidine] reads under 100 nM.
`COc1ccccc1CNC(=N)Nc1cccc(-c2ccc(F)cc2)n1` [Example 50, N-[6-(4-Fluorophenyl)pyridin-2-yl]-N′-(2-methoxybenzyl)guanidine] displayed a Ki of under 300 nM.

The values above are taken from patent US9296697B2, “Hetaryl-substituted guanidine compounds and use thereof as binding partners for 5-HT5-receptors” (Abbott Laboratories, priority 2005, dated 2016).
